One assay deals with WDR5 protein (Homo sapiens (Human), UniProt P61964). Description: Surface Plasmon Resonance (SPR) assay. In kind it is binding. The note with it: SPR; for residence time: τ=1/koff, read-out: Residence Time (t, min).
Another assay concerns the target MLL1-WRAD2 complex (Homo sapiens (Human), UniProt P61964). Description: MLL1-WRAD2 enzyme assay (in vitro methyl transferase assay). In kind it is biochemical. Particulars: MLL1-WRAD2 assay; read-out: In vitro MLL1 activity (IC50). The method, then:
Reaction was initiated with 1 μM 3H-SAM and incubated for 1 hour at 30° C. Reaction mixture was transferred to P81 filter-paper and washed with PBS before detection.

A further assay deals with MV4-11 cells. Description: Cell proliferation assay (ATPlite). The format is cell-based. Particulars: Homo sapiens, MV4-11, 120 h; MV-411 cells, five days; read-out: In vitro whole cell potency in MV-411 cells, (IC50). The method, then: MV4-11 cells were seeded into a 96-well plate at 1,000 cells/well in 150 μl medium (Alpha-MEM containing 10% FBS, 100 μg/ml Normocin, and 50 μg/ml Gentamycin, Invitrogen). A HP D300 digital dispenser was used to dose cells with DMSO or test compounds across a 10-point range of concentrations (high dose of 10 μM), and cultures were grown in a humidified 5% CO2 incubator at 37° C. After five days, plates were removed from incubator and equilibrated to room temperature. An equal volume of ATPlite assay reagent was added to each well, and samples were processed according to manufacturer's instructions (Perkin Elmer). Luminescent signal was measured using an Envision plate reader equipped with a US-Luminescence detector.
In general terms: In ATP-based viability assays light output follows the ATP content of the culture.

Where [1] appears, read: Table 1, read-out: WDR5 binding affinity (KD).
Where [2] appears, read: Table 2, read-out: WDR5 binding affinity SPR (KD).

Like-named read-outs stand apart in the source and are kept apart here.

In general, Kd refers to the concentration at which binding is half-saturated. Usually IC50 stands for the concentration at which inhibition is half-maximal. With `CCN1CCN(c2ccc(-c3cc(CNC4CCCCC4)ccc3F)cc2NC(=O)c2c[nH]c(=O)cc2C(F)(F)F)CC1` [Example 63, N-(5′-((cyclohexylamino)methyl)-4-(4-ethylpiperazin-1-yl)-2′-fluoro-[1,1′-biphenyl]-3-yl)-6-oxo-4-(trifluoromethyl)-1,6-dihydropyridine-3-carboxamide], the Kd at WDR5 protein (setting [1]) and on WDR5 protein (setting [2]) was > 200 nM throughout. The values for the IC50 at MLL1-WRAD2 complex and with MV4-11 cells were 5630 nM and > 10000 nM, respectively.

Broadly, the residence time is how long the partners stay bound on average. For `CN1CCN(c2ccc(-c3cc(CN4CCN(CC5CC5)CC4)ccc3F)cc2NC(=O)c2c[nH]c(=O)cc2C(F)(F)F)CC1` [Example 66, N-(5′-((4-(cyclopropylmethyl)piperazin-1-yl)methyl)-2′-fluoro-4-(4-methylpiperazin-1-yl)-[1,1′-biphenyl]-3-yl)-6-oxo-4-(trifluoromethyl)-1,6-dihydropyridine-3-carboxamide], the Kd at WDR5 protein (setting [1]) and on WDR5 protein (setting [2]) was 7.2 nM each time. In addition, at WDR5 protein, the residence time stood at 3.79 min. For the same molecule, the IC50 on MLL1-WRAD2 complex was determined as 1100 nM; in the assay with MV4-11 cells, 1130 nM.

Consider `CN1CCN(c2ccc(-c3cc(CN(C)C4CCCCC4)ccc3F)cc2NC(=O)c2c[nH]c(=O)cc2C(F)(F)F)CC1` [Example 67, N-(5′-((cyclohexyl(methyl)amino)methyl)-2′-fluoro-4-(4-methylpiperazin-1-yl)-[1,1′-biphenyl]-3-yl)-6-oxo-4-(trifluoromethyl)-1,6-dihydropyridine-3-carboxamide], for which the Kd at WDR5 protein (setting [1]) and at WDR5 protein (setting [2]) was 3.2 nM each time. Further, at WDR5 protein, the residence time is 8.8 min. The values for the IC50 at MLL1-WRAD2 complex and with MV4-11 cells were 1150 nM and 292 nM, respectively.

Take `CN1CCN(c2ccc(-c3cc(CN4CCN(Cc5ccc(F)cc5)CC4)ccc3F)cc2NC(=O)c2c[nH]c(=O)cc2C(F)(F)F)CC1` [Example 68, N-(2′-fluoro-5′-((4-(4-fluorobenzyl)piperazin-1-yl)methyl)-4-(4-methylpiperazin-1-yl)-[,1′-biphenyl]-3-yl)-6-oxo-4-(trifluoromethyl)-1,6-dihydropyridine-3-carboxamide]: the Kd at WDR5 protein (setting [1]) and at WDR5 protein (setting [2]) was 7.7 nM throughout. The residence time at WDR5 protein worked out at 3.81 min. Besides, the IC50 at MLL1-WRAD2 complex is 1890 nM; in the assay with MV4-11 cells, 1790 nM.

As to `CN1CCN(c2ccc(-c3cc(CN4CC[C@@H](O)C4)ccc3F)cc2NC(=O)c2c[nH]c(=O)cc2C(F)(F)F)CC1` [Example 69, (R)—N-(2′-fluoro-5′-((3-hydroxypyrrolidin-1-yl)methyl)-4-(4-methylpiperazin-1-yl)-[1,1′-biphenyl]-3-yl)-6-oxo-4-(trifluoromethyl)-1,6-dihydropyridine-3-carboxamide], the Kd at WDR5 protein (setting [1]) and at WDR5 protein (setting [2]) was 5.4 nM each time. Also, the residence time at WDR5 protein came to 2.36 min. In addition, the IC50 is 2890 nM at MLL1-WRAD2 complex and > 10000 nM in the assay on MV4-11 cells.

`CN1CCN(c2ccc(-c3cc(CN4CCC(N5CCOCC5)CC4)ccc3F)cc2NC(=O)c2c[nH]c(=O)cc2C(F)(F)F)CC1` [Example 70, N-(2′-fluoro-4-(4-methylpiperazin-1-yl)-5′-((4-morpholinopiperidin-1-yl)methyl)-[1,1′-biphenyl]-3-yl)-6-oxo-4-(trifluoromethyl)-1,6-dihydropyridine-3-carboxamide]: the Kd on WDR5 protein (setting [1]) and at WDR5 protein (setting [2]) was 4.4 nM in each case. Moreover, the residence time on WDR5 protein is 5.8 min. Also, the IC50 turned out to be 1110 nM on MLL1-WRAD2 complex and 1140 nM in the assay on MV4-11 cells.

`CN1CCN(c2ccc(-c3cc(CN4CC[C@@H](N(C)C)C4)ccc3F)cc2NC(=O)c2c[nH]c(=O)cc2C(F)(F)F)CC1` [Example 71, (R)—N-(5′-((3-(dimethylamino)pyrrolidin-1-yl)methyl)-2′-fluoro-4-(4-methylpiperazin-1-yl)-[1,1′-biphenyl]-3-yl)-6-oxo-4-(trifluoromethyl)-1,6-dihydropyridine-3-carboxamide]: the Kd at WDR5 protein (setting [1]) and on WDR5 protein (setting [2]) was 4.8 nM each time. Further, the residence time at WDR5 protein was 4.29 min. Besides, the results for the IC50 on MLL1-WRAD2 complex and in the assay on MV4-11 cells were 2070 nM and 2710 nM, respectively.

Regarding `CN1CCN(c2ccc(-c3cc(CN4CCNCC4)ccc3F)cc2NC(=O)c2c[nH]c(=O)cc2C(F)(F)F)CC1` [Example 72, N-(2′-fluoro-4-(4-methylpiperazin-1-yl)-5′-(piperazin-1-ylmethyl)-[1,1′-biphenyl]-3-yl)-6-oxo-4-(trifluoromethyl)-1,6-dihydropyridine-3-carboxamide], the Kd at WDR5 protein (setting [1]) and on WDR5 protein (setting [2]) was 5.1 nM each time. In addition, the residence time on WDR5 protein came out at 1.16 min. The IC50 is 5930 nM on MLL1-WRAD2 complex and > 10000 nM with MV4-11 cells.

Regarding `CN1CCN(c2ccc(-c3cc(CN4CCC(F)CC4)ccc3F)cc2NC(=O)c2c[nH]c(=O)cc2C(F)(F)F)CC1` [Example 73, N-(2′-fluoro-5′-((4-fluoropiperidin-1-yl)methyl)-4-(4-methylpiperazin-1-yl)-[1,1′-biphenyl]-3-yl)-6-oxo-4-(trifluoromethyl)-1,6-dihydropyridine-3-carboxamide], the Kd on WDR5 protein (setting [1]) and on WDR5 protein (setting [2]) was 4.2 nM in each case. In addition, the residence time at WDR5 protein is 5.44 min. In addition, the IC50 at MLL1-WRAD2 complex worked out at 592 nM; with MV4-11 cells, 502 nM.

In the case of `CN1CCN(c2ccc(-c3cc(CN4C5COCC4C5)ccc3F)cc2NC(=O)c2c[nH]c(=O)cc2C(F)(F)F)CC1` [Example 74, N-(5′-(3-oxa-6-azabicyclo[3.1.1]heptan-6-ylmethyl)-2′-fluoro-4-(4-methylpiperazin-1-yl)-[1,1′-biphenyl]-3-yl)-6-oxo-4-(trifluoromethyl)-1,6-dihydropyridine-3-carboxamide], the Kd at WDR5 protein (setting [1]) and at WDR5 protein (setting [2]) was 4.8 nM each time. The IC50 on MLL1-WRAD2 complex amounted to 1750 nM; with MV4-11 cells, 5430 nM.

As to `CN1CCN(c2ccc(-c3cc(CN4CC[C@@H](S(C)(=O)=O)C4)ccc3F)cc2NC(=O)c2c[nH]c(=O)cc2C(F)(F)F)CC1` [Example 75, (R)—N-(2′-fluoro-4-(4-methylpiperazin-1-yl)-5′-((3-(methylsulfonyl)pyrrolidin-1-yl)methyl)-[1,1′-biphenyl]-3-yl)-6-oxo-4-(trifluoromethyl)-1,6-dihydropyridine-3-carboxamide], the Kd at WDR5 protein (setting [1]) and on WDR5 protein (setting [2]) was 5.9 nM throughout. Besides, the residence time at WDR5 protein was determined as 5.13 min. The IC50 on MLL1-WRAD2 complex worked out at 2090 nM; in the assay on MV4-11 cells, 1220 nM.

For `CN1CCN(c2ccc(-c3cc(CN(C)[C@H]4CCOC4)ccc3F)cc2NC(=O)c2c[nH]c(=O)cc2C(F)(F)F)CC1` [Example 76, (S)—N-(2′-fluoro-5′-((methyl(tetrahydrofuran-3-yl)amino)methyl)-4-(4-methylpiperazin-1-yl)-[1,1′-biphenyl]-3-yl)-6-oxo-4-(trifluoromethyl)-1,6-dihydropyridine-3-carboxamide], the Kd on WDR5 protein (setting [1]) and at WDR5 protein (setting [2]) was 5.5 nM in each case. In addition, on WDR5 protein, the residence time was 3.81 min. In addition, the results for the IC50 on MLL1-WRAD2 complex and in the assay on MV4-11 cells were 1900 nM and 787 nM, respectively.

`CN1CCN(c2ccc(-c3cc(CN4CCOC(C)(C)C4)ccc3F)cc2NC(=O)c2c[nH]c(=O)cc2C(F)(F)F)CC1` [Example 77, N-(5′-((2,2-dimethylmorpholino)methyl)-2′-fluoro-4-(4-methylpiperazin-1-yl)-[1,1′-biphenyl]-3-yl)-6-oxo-4-(trifluoromethyl)-1,6-dihydropyridine-3-carboxamide]: the Kd on WDR5 protein (setting [1]) and at WDR5 protein (setting [2]) was 4.5 nM throughout. Besides, the residence time at WDR5 protein is 5.41 min. The IC50 on MLL1-WRAD2 complex worked out at 907 nM; in the assay with MV4-11 cells, 1280 nM.

Consider `C[C@@H]1CN(c2ccc(-c3cc(C(=O)Nc4ccccc4)ccc3F)cc2NC(=O)c2c[nH]c(=O)cc2C(F)(F)F)C[C@H](C)N1C` [Example 80, N-(2′-fluoro-5′-(phenylcarbamoyl)-4-((3S,5R)-3,4,5-trimethylpiperazin-1-yl)-[1,1′-biphenyl]-3-yl)-6-oxo-4-(trifluoromethyl)-1,6-dihydropyridine-3-carboxamide], for which the results for the Kd on WDR5 protein (setting [1]) and on WDR5 protein (setting [2]) were 4 nM and 14 nM, respectively. For the same molecule, the residence time on WDR5 protein was 2.18 min. For the same molecule, the IC50 at MLL1-WRAD2 complex was 3990 nM; in the assay on MV4-11 cells, 2180 nM.

In the case of `CC1CN(c2ccc(-c3cc(C(=O)NC4CCCCC4)ccc3F)cc2NC(=O)c2c[nH]c(=O)cc2C(F)(F)F)CCN1C` (stereo not drawn) [Example 81, N-(5′-(cyclohexylcarbamoyl)-4-(3,4-dimethylpiperazin-1-yl)-2′-fluoro-[1,1′-biphenyl]-3-yl)-6-oxo-4-(trifluoromethyl)-1,6-dihydropyridine-3-carboxamide], the Kd stood at 6.3 nM at WDR5 protein (setting [1]) and 17.5 nM on WDR5 protein (setting [2]). In addition, the residence time on WDR5 protein is 0.78 min. Further, the results for the IC50 on MLL1-WRAD2 complex and in the assay on MV4-11 cells were > 30000 nM and > 10000 nM, respectively.

For the molecule `C[C@@H]1CN(c2ccc(-c3ccc(OCC4CC4)nc3F)cc2NC(=O)c2c[nH]c(=O)cc2C(F)(F)F)C[C@H](C)N1C` [Example 82, N-(5-(6-(cyclopropylmethoxy)-2-fluoropyridin-3-yl)-2-((3R,5S)-3,4,5-trimethylpiperazin-1-yl)phenyl)-6-oxo-4-(trifluoromethyl)-1,6-dihydropyridine-3-carboxamide], the Kd at WDR5 protein (setting [1]) and at WDR5 protein (setting [2]) was 0.7 nM throughout. The residence time at WDR5 protein came out at 23 min. Also, the IC50 on MLL1-WRAD2 complex came to 549 nM; with MV4-11 cells, 536 nM.

The values are drawn from patent publication US11174250B2, “Substituted carboxamides as inhibitors of WDR5 protein-protein binding” (PROPELLON THERAPEUTICS INC., priority 2016, dated 2021).
